This series is described as follows: Enhancement of bioavailability of drugs given to rats with bioenhancers (plasma drug level by HPLC). The following applies: for % Enhancement in bioavailability, BE from Carum carvi: drug with Carum carvi bioenhancer (aqueous or 50% alcoholic extract 30 mg/kg or Fraction No. 1 15 mg/kg), drug dose mg/kg; for % Enhancement in bioavailability, Carum carvi + Zingiber officinale: drug with Carum carvi bioenhancer and Zingiber officinale 35 mg/kg; for % Enhancement in bioavailability, Carum carvi + Zingiber officinale / % Enhancement in bioavailability, Carum carvi + Piperine / % Enhancement in bioavailability, BE from Zingiber officinale / % Enhancement in bioavailability, Piperine as BE: drug dose as in row; for % Enhancement in bioavailability, Carum carvi + Piperine: drug with Carum carvi bioenhancer and piperine 8 mg/kg; for % Enhancement in bioavailability, BE from Zingiber officinale: drug with Zingiber officinale 50% alcoholic extract of fresh ginger 35 mg/kg; for % Enhancement in bioavailability, Piperine as BE: drug with piperine 8 mg/kg; for % Enhancement in bioavailability, Carum carvi (Cc) Frac 1.: nutraceutical with Carum carvi Fraction No. 1 15 mg/kg; for % Enhancement in bioavailability, Carum carvi + Zingiber officinale, Frac 1. (Cc): nutraceutical with Carum carvi Fraction No. 1 and Zingiber officinale; for % Enhancement in bioavailability, Carum carvi + piperine, Frac 1. (Cc): nutraceutical with Carum carvi Fraction No. 1 and piperine; for % Enhancement in bioavailability, Carum carvi (Cc) Extr.: nutraceutical with Carum carvi extract 30 mg/kg; for % Enhancement in bioavailability, Carum carvi + Zingiber officinale, Extr. (Cc): nutraceutical with Carum carvi extract and Zingiber officinale; for % Enhancement in bioavailability, Carum carvi + piperine, Extr. (Cc): nutraceutical with Carum carvi extract and piperine.

The values that follow come from patent US20080292736A1, “Bioavailability enhancing activity of carum carvi extracts and fractions thereof” (COUNCIL OF SCIENTIFIC AND INDUSTRIAL RESEARCH, priority 2001, published 2008).

Each structure is given as a SMILES string.

`CC(C)NCC(O)COc1cccc2ccccc12` (stereo not drawn) [Propranolol]: the “% Enhancement in bioavailability, BE from Carum carvi” value (“% Enhancement … from Carum carvi” for short) came to 68%; the “% Enhancement in bioavailability, Carum carvi + Zingiber officinale” value worked out at 75%; the “% Enhancement in bioavailability, Carum carvi + Piperine” value is given as 90%; the “% Enhancement in bioavailability, BE from Zingiber officinale” value (“% Enhancement … from Zingiber officinale” for short) was 76%. For the same compound, the “% Enhancement in bioavailability, Piperine as BE” value (shortened to “% Enhancement … as BE”) worked out at 84%.
Take `CC(=O)N1CCN(c2ccc(OCC3COC(Cn4ccnc4)(c4ccc(Cl)cc4Cl)O3)cc2)CC1` (stereo not drawn) [Ketoconazole]: the “% Enhancement … from Carum carvi” value is 55%; the “% Enhancement in bioavailability, Carum carvi + Zingiber officinale” value was 96%; the “% Enhancement in bioavailability, Carum carvi + Piperine” value is given as 100%; the “% Enhancement … from Zingiber officinale” value was determined as 125%. In addition, the “% Enhancement … as BE” value was 105%.
In the case of `O=C(CCCN1CCC(O)(c2ccc(Cl)cc2)CC1)c1ccc(F)cc1` [Haloperidol], the “% Enhancement … from Carum carvi” value was 95%; the “% Enhancement in bioavailability, Carum carvi + Zingiber officinale” value came to 85%; the “% Enhancement in bioavailability, Carum carvi + Piperine” value is 90%; the “% Enhancement … from Zingiber officinale” value is “Nil”. For the same compound, the “% Enhancement … as BE” value is “nil”.
Taken in the same sequence, the figures for `CN(Cc1cnc2nc(N)nc(N)c2n1)c1ccc(C(=O)N[C@@H](CCC(=O)O)C(=O)O)cc1` [Methotrexate] were 76%, 102%, 89%, 87% and 65%.
`CN/C(=N/CCSCc1nc[nH]c1C)NC#N` [Cimetidine]: the “% Enhancement … from Carum carvi” value amounted to 72%; the “% Enhancement in bioavailability, Carum carvi + Zingiber officinale” value is reported as 100%; the “% Enhancement in bioavailability, Carum carvi + Piperine” value is on record as 84%; the “% Enhancement … from Zingiber officinale” value came to 98%. Moreover, the “% Enhancement … as BE” value was “nil”.
With `Cc1ncc(C[n+]2csc(CCO)c2C)c(N)n1` [Vit B 1], the “% Enhancement … from Zingiber officinale” value was 31%; the “% Enhancement … as BE” value was determined as 17%; the “% Enhancement in bioavailability, Carum carvi (Cc) Frac 1.” value (“% Enhancement … (Cc) Frac 1.” for short) stood at 42%; the “% Enhancement in bioavailability, Carum carvi + Zingiber officinale, Frac 1. (Cc)” value is 55%. The “% Enhancement in bioavailability, Carum carvi + piperine, Frac 1. (Cc)” value was found to be 26%; the “% Enhancement in bioavailability, Carum carvi (Cc) Extr.” value (“% Enhancement … (Cc) Extr.” for short) amounted to 37%; the “% Enhancement in bioavailability, Carum carvi + Zingiber officinale, Extr. (Cc)” value was determined as 43%; the “% Enhancement in bioavailability, Carum carvi + piperine, Extr. (Cc)” value was determined as 21%.
With `[K+]` [Potassium], the “% Enhancement … from Zingiber officinale” value was “nil”; the “% Enhancement … as BE” value is reported as “nil”; the “% Enhancement … (Cc) Frac 1.” value is given as “Nil”; the “% Enhancement in bioavailability, Carum carvi + Zingiber officinale, Frac 1. (Cc)” value was “Nil”. In addition, the “% Enhancement in bioavailability, Carum carvi + piperine, Frac 1. (Cc)” value is “Nil”; the “% Enhancement … (Cc) Extr.” value is given as “nil”; the “% Enhancement in bioavailability, Carum carvi + Zingiber officinale, Extr. (Cc)” value is “Nil”; the “% Enhancement in bioavailability, Carum carvi + piperine, Extr. (Cc)” value is listed as “nil”.
For `Cc1ncc(CO)c(CO)c1O` [Vit B 6], the “% Enhancement … from Zingiber officinale” value is “Nil”; the “% Enhancement … as BE” value is given as “Nil”; the “% Enhancement … (Cc) Frac 1.” value is listed as “Nil”; the “% Enhancement in bioavailability, Carum carvi + Zingiber officinale, Frac 1. (Cc)” value is reported as “Nil”. In addition, the “% Enhancement in bioavailability, Carum carvi + piperine, Frac 1. (Cc)” value is recorded as “Nil”; the “% Enhancement … (Cc) Extr.” value was “nil”; the “% Enhancement in bioavailability, Carum carvi + Zingiber officinale, Extr. (Cc)” value is on record as “Nil”; the “% Enhancement in bioavailability, Carum carvi + piperine, Extr. (Cc)” value was “Nil”.
As for `CSCC[C@H](N)C(=O)O` [Methionine], the “% Enhancement … from Zingiber officinale” value is 23%; the “% Enhancement … as BE” value came out at 11%; the “% Enhancement … (Cc) Frac 1.” value is 28%; the “% Enhancement in bioavailability, Carum carvi + Zingiber officinale, Frac 1. (Cc)” value came to 37%. The “% Enhancement in bioavailability, Carum carvi + piperine, Frac 1. (Cc)” value worked out at 30%; the “% Enhancement … (Cc) Extr.” value is given as 20%; the “% Enhancement in bioavailability, Carum carvi + Zingiber officinale, Extr. (Cc)” value was 30%; the “% Enhancement in bioavailability, Carum carvi + piperine, Extr. (Cc)” value came out at 25%.
As for `O=c1[nH]cc(F)c(=O)[nH]1` [5-Fluorouracil], the “% Enhancement … from Carum carvi” value turned out to be 90%; the “% Enhancement in bioavailability, Carum carvi + Zingiber officinale” value was determined as 100%; the “% Enhancement in bioavailability, Carum carvi + Piperine” value is given as 110%; the “% Enhancement … from Zingiber officinale” value is on record as 110%. In addition, the “% Enhancement … as BE” value came out at 87%.
As for `CC1(C)S[C@@H]2[C@H](NC(=O)[C@H](N)c3ccc(O)cc3)C(=O)N2[C@H]1C(=O)O` [Amoxycillin], the “% Enhancement … from Carum carvi” value came out at 75%; the “% Enhancement in bioavailability, Carum carvi + Zingiber officinale” value is reported as 100%; the “% Enhancement in bioavailability, Carum carvi + Piperine” value was 115%; the “% Enhancement … from Zingiber officinale” value stood at 80%. Moreover, the “% Enhancement … as BE” value is 120%.
On the same counts, the results for `CS(=O)(=O)Nc1ccc([N+](=O)[O-])cc1Oc1ccccc1` [Nimesulide] are 100%, 145%, 140%, 144% and 132%.
On the same counts, the results for `COc1c(C)c2c(c(O)c1C/C=C(\C)CCC(=O)OCCN1CCOCC1)C(=O)OC2` [Mycophenolate Mofeit] are “Nil”, “nil”, “nil”, “Nil” and “nil”.
For the compound `CO/N=C(\C(=O)N[C@@H]1C(=O)N2C(C(=O)O)=C(CSc3nc(=O)c(O)nn3C)CS[C@H]12)c1csc(N)n1` [Cefetrioxone], the “% Enhancement … from Carum carvi” value is recorded as 72%; the “% Enhancement in bioavailability, Carum carvi + Zingiber officinale” value worked out at 75%; the “% Enhancement in bioavailability, Carum carvi + Piperine” value was 78%; the “% Enhancement … from Zingiber officinale” value is listed as “Nil”. Besides, the “% Enhancement … as BE” value is on record as “Nil”.
For `CC1=C(/C=C/C(C)=C/C=C/C(C)=C/C=C/C=C(C)/C=C/C=C(C)/C=C/C2=C(C)CCCC2(C)C)C(C)(C)CCC1` [B-carotene], the “% Enhancement … from Zingiber officinale” value is 35%; the “% Enhancement … as BE” value is 29%; the “% Enhancement … (Cc) Frac 1.” value is 55%; the “% Enhancement in bioavailability, Carum carvi + Zingiber officinale, Frac 1. (Cc)” value worked out at 72%. The “% Enhancement in bioavailability, Carum carvi + piperine, Frac 1. (Cc)” value was determined as 59%; the “% Enhancement … (Cc) Extr.” value was 47%; the “% Enhancement in bioavailability, Carum carvi + Zingiber officinale, Extr. (Cc)” value was found to be 63%; the “% Enhancement in bioavailability, Carum carvi + piperine, Extr. (Cc)” value worked out at 45%.
For `CS(=O)(=O)c1ccc(C2=C(c3ccccc3)C(=O)OC2)cc1` [Rofecoxib], the “% Enhancement … from Carum carvi” value was found to be 75%; the “% Enhancement in bioavailability, Carum carvi + Zingiber officinale” value is reported as 80%; the “% Enhancement in bioavailability, Carum carvi + Piperine” value came to 70%; the “% Enhancement … from Zingiber officinale” value is “Nil”. Besides, the “% Enhancement … as BE” value is on record as “nil”.
For `[Ca+2]` [Calcium], the “% Enhancement … from Zingiber officinale” value is given as “nil”; the “% Enhancement … as BE” value is reported as “nil”; the “% Enhancement … (Cc) Frac 1.” value is given as “Nil”; the “% Enhancement in bioavailability, Carum carvi + Zingiber officinale, Frac 1. (Cc)” value is recorded as “Nil”. Besides, the “% Enhancement in bioavailability, Carum carvi + piperine, Frac 1. (Cc)” value is recorded as “Nil”; the “% Enhancement … (Cc) Extr.” value is recorded as “nil”; the “% Enhancement in bioavailability, Carum carvi + Zingiber officinale, Extr. (Cc)” value was “Nil”; the “% Enhancement in bioavailability, Carum carvi + piperine, Extr. (Cc)” value was “nil”.
In the case of `COc1cccc2c1C(=O)c1c(O)c3c(c(O)c1C2=O)C[C@@](O)(C(=O)CO)C[C@@H]3O[C@H]1C[C@H](N)[C@H](O)[C@H](C)O1` [Dauxorubicin], the “% Enhancement … from Carum carvi” value is listed as “Nil”; the “% Enhancement in bioavailability, Carum carvi + Zingiber officinale” value came out at 69%; the “% Enhancement in bioavailability, Carum carvi + Piperine” value was found to be 70%; the “% Enhancement … from Zingiber officinale” value was found to be 72%. Also, the “% Enhancement … as BE” value is recorded as 68%.
Take `[Zn]` [Zinc]: the “% Enhancement … from Zingiber officinale” value is reported as “nil”; the “% Enhancement … as BE” value is reported as “nil”; the “% Enhancement … (Cc) Frac 1.” value is recorded as “Nil”; the “% Enhancement in bioavailability, Carum carvi + Zingiber officinale, Frac 1. (Cc)” value is “Nil”. The “% Enhancement in bioavailability, Carum carvi + piperine, Frac 1. (Cc)” value is reported as “Nil”; the “% Enhancement … (Cc) Extr.” value is reported as “nil”; the “% Enhancement in bioavailability, Carum carvi + Zingiber officinale, Extr. (Cc)” value is recorded as “Nil”; the “% Enhancement in bioavailability, Carum carvi + piperine, Extr. (Cc)” value is “nil”.
Regarding `NCCCC[C@H](N[C@@H](CCc1ccccc1)C(=O)O)C(=O)N1CCC[C@H]1C(=O)O` [Lisinopril], the “% Enhancement … from Carum carvi” value is recorded as 79%; the “% Enhancement in bioavailability, Carum carvi + Zingiber officinale” value stood at 90%; the “% Enhancement in bioavailability, Carum carvi + Piperine” value stood at 95%; the “% Enhancement … from Zingiber officinale” value turned out to be 76%. The “% Enhancement … as BE” value came to 85%.
On the same counts, the results for `CC(C)(C)NCC(O)c1ccc(O)c(CO)c1` (stereo not drawn) [Salbutamol] are 75%, 80%, 89%, 78% and 60%.
